The text below walks through data of patent US20230117324A1, “OXAZINE MONOACYLGLYCEROL LIPASE (MAGL) INHIBITORS” (Hoffmann-La Roche Inc., priority 2018, published 2023).

In the assay the target is T1, MAGL (Homo sapiens, UniProt Q99685).
T1 sequence (Q99685 1-303): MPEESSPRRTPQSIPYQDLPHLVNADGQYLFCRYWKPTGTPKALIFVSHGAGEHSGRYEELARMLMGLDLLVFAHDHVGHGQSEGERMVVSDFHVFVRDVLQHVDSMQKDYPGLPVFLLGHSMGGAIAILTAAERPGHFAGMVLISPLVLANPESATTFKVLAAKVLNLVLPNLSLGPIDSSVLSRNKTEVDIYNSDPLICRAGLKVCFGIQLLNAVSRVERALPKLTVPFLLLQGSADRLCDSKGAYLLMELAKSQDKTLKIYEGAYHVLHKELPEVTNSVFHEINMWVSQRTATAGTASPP
The experiment in a line: MAGL inhibition, 2-AG assay (hydrolysis of 2-arachidonoylglycerol, arachidonic acid by mass spectrometry). Format: biochemical. The note with it: 2-AG assay (footnote [b]). The method, boiled down:
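Human MAGL […] was preincubated 15 min at RT with compound ([…], 3-fold steps) in 50 mM Tris, 1 mM EDTA, 0.01% Tween. 2-AG (8 μM) was then added for 30 min at RT. Arachidonic acid was quantified by RapidFire SPE–triple quadrupole MS in negative ESI as its ratio to a d8-arachidonic acid standard.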
`O=C1CO[C@H]2CCN(C(=O)N3CC(c4ccc(N5CC6CC(C6)C5)cc4)C3)C[C@H]2N1` [Example 230, (4aR,8aS)-6-[3-[4-(3-Azabicyclo[3.1.1]heptan-3-yl)phenyl]azetidine-1-carbonyl]-4,4a,5,7,8,8a-hexahydropyrido[4,3-b][1,4]oxazin-3-one]: it took 0.2 nM to reach half-maximal inhibition (IC50).

On to `O=C1CO[C@H]2CCN(C(=O)N3CC(c4ccc(-c5ccc(F)cc5Cl)cc4)C3)C[C@H]2N1` [Example 134, (4aR,8aS)-6-[3-[4-(2-Chloro-4-fluoro-phenyl)phenyl]azetidine-1-carbonyl]-4,4a,5,7,8,8a-hexahydropyrido[4,3-b][1,4]oxazin-3-one], for which the IC50 (commonly the concentration needed to halve the response being measured) came to 0.1 nM.

Compound `CC(F)(F)c1ccc(C2CN(C(=O)N3CC[C@@H]4OCC(=O)N[C@@H]4C3)C2)cc1` [Example 148, (4aR,8aS)-6-(3-(4-(1,1-Difluoroethyl)phenyl)azetidine-1-carbonyl)hexahydro-2H-pyrido[4,3-b][1,4]oxazin-3(4H)-one] yielded an IC50 of 14 nM.

For `O=C1CO[C@H]2CCN(C(=O)N3CC(c4ccc(N5CCC(C(F)(F)F)C5)cc4)C3)C[C@H]2N1` (single isomer, unassigned) [Example 198, (4aR,8aS)-6-(3-(4-((S or R)-3-(Trifluoromethyl)pyrrolidin-1-yl)phenyl)azetidine-1-carbonyl)hexahydro-2H-pyrido[4,3-b][1,4]oxazin-3(4H)-one], the IC50 worked out at 1 nM.

Compound `O=C1CO[C@H]2CCN(C(=O)N3CC(c4ccc(N5CCCCC5)cc4)C3)C[C@H]2N1` [Example 196, (4aR,8aS)-6-[3-[4-(1-Piperidyl)phenyl]azetidine-1-carbonyl]-4,4a,5,7,8,8a-hexahydropyrido[4,3-b][1,4]oxazin-3-one] had an IC50 of 2 nM.

`CC1C(c2ccc(OC(F)(F)F)cc2)CN1C(=O)N1CC[C@@H]2OCC(=O)N[C@@H]2C1` (stereo partly drawn) [Example 231, (4aR,8aS)-6-(2-Methyl-3-(4-(Trifluoromethoxy)phenyl)azetidine-1-carbonyl)hexahydro-2H-pyrido[4,3-b][1,4]oxazin-3(4H)-one] yielded an IC50 of 114 nM.

`O=C1CO[C@H]2CCN(C(=O)N3CC(c4ccc(O)c(Cl)c4)C3)C[C@H]2N1` [Example 223, (4aR,8aS)-6-(3-(3-Chloro-4-hydroxyphenyl)azetidine-1-carbonyl)hexahydro-2H-pyrido[4,3-b][1,4]oxazin-3(4H)-one] showed an IC50 of 188 nM.

The compound `COc1ccc(C(c2ccncc2)C2CCN(C(=O)N3CC[C@@H]4OCC(=O)N[C@@H]4C3)CC2)cc1OC` (single isomer, unassigned) [Example 149, (4aR,8aS)-6-[4-[(R or S)-(3,4-Dimethoxyphenyl)-(4-pyridyl)methyl]piperidine-1-carbonyl]-4,4a,5,7,8,8a-hexahydropyrido[4,3-b][1,4]oxazin-3-one] displayed an IC50 of 51 nM.

As for `O=C1CO[C@H]2CCN(C(=O)N3CCC(c4cccc(OC(F)(F)F)c4)C3)C[C@H]2N1` (single isomer, unassigned) [Example 222, (4aR,8aS)-6-[3-(R or S)-[3-(Trifluoromethoxy)phenyl]pyrrolidine-1-carbonyl]-4,4a,5,7,8,8a-hexahydropyrido[4,3-b][1,4]oxazin-3-one], half-maximal inhibition (IC50) required 114 nM.

`O=C1CO[C@H]2CCN(C(=O)N3CCC(C(OCC(F)(F)F)c4ccc(F)cc4)CC3)C[C@H]2N1` (stereo partly drawn) [Example 50, (4aR,8aS)-6-(4-((4-Fluorophenyl)(2,2,2-trifluoroethoxy)methyl)piperidine-1-carbonyl)hexahydro-2H-pyrido[4,3-b][1,4]oxazin-3(4H)-one] yielded an IC50 of 9 nM.

As to `O=C1CO[C@H]2CCN(C(=O)N3CCC(c4cccc(Br)c4)C3)C[C@H]2N1` (single isomer, unassigned) [Example 228, (4aR,8aS)-6-[(3S or R)-3-(3-Bromophenyl)pyrrolidine-1-carbonyl]-4,4a,5,7,8,8a-hexahydropyrido[4,3-b][1,4]oxazin-3-one], the IC50 was 162 nM.

On to `O=C1CO[C@H]2CCN(C(=O)N3CC(c4ccc(C5(CO)CC5)cc4)C3)C[C@H]2N1` [Example 214, (4aR,8aS)-6-(3-(4-(1-(Hydroxymethyl)cyclopropyl)phenyl)azetidine-1-carbonyl)hexahydro-2H-pyrido[4,3-b][1,4]oxazin-3(4H)-one], for which the IC50 turned out to be 62 nM.

`O=C1CO[C@H]2CCN(C(=O)N3CCC(c4ccnc(C5CC5)c4)CC3)C[C@H]2N1` [Example 61, (4aR,8aS)-6-(4-(2-Cyclopropylpyridin-4-yl)piperidine-1-carbonyl)hexahydro-2H-pyrido[4,3-b][1,4]oxazin-3(4H)-one]: the IC50 worked out at 569 nM.

`O=C1CO[C@H]2CCN(C(=O)N3CC(c4ccccc4)C3)C[C@H]2N1` [Example 185, (4aR,8aS)-6-(3-Phenylazetidine-1-carbonyl)hexahydro-2H-pyrido[4,3-b][1,4]oxazin-3(4H)-one] gave an IC50 of 139 nM.

As to `CC(C)(OC1CN(c2ccc(C3CN(C(=O)N4CC[C@@H]5OCC(=O)N[C@@H]5C4)C3)cc2)C1)C(F)(F)F` [Example 147, (4aR,8aS)-6-(3-(4-(3-((1,1,1-Trifluoro-2-methylpropan-2-yl)oxy)azetidin-1-yl)phenyl)azetidine-1-carbonyl)hexahydro-2H-pyrido[4,3-b][1,4]oxazin-3(4H)-one], the IC50 was 1 nM.

With `O=C1CO[C@H]2CCN(C(=O)N3CC(O)(c4ccc(Br)cc4)C3)C[C@H]2N1` [Example 123, (4aR,8aS)-6-(3-(4-Bromophenyl)-3-hydroxyazetidine-1-carbonyl)hexahydro-2H-pyrido[4,3-b][1,4]oxazin-3(4H)-one], the IC50 came out at 226 nM.

`O=C1CO[C@H]2CCN(C(=O)N3CC(c4ccc(Cl)nc4)C3)C[C@H]2N1` [Example 145, (4aR,8aS)-6-(3-(6-Chloropyridin-3-yl)azetidine-1-carbonyl)hexahydro-2H-pyrido[4,3-b][1,4]oxazin-3(4H)-one] had an IC50 of 4300 nM.

`CC1CN(c2cc(C3CN(C(=O)N4CC[C@@H]5OCC(=O)N[C@@H]5C4)C3)ccc2OC(F)(F)F)C1` [Example 227, (4aR,8aS)-6-(3-(3-(3-Methylazetidin-1-yl)-4-(trifluoromethoxy)phenyl)azetidine-1-carbonyl)hexahydro-2H-pyrido[4,3-b][1,4]oxazin-3(4H)-one] came in with an IC50 of 14 nM.

Regarding `CS(=O)(=O)c1cccc(C(c2cccnc2)C2CCN(C(=O)N3CC[C@@H]4OCC(=O)N[C@@H]4C3)CC2)c1` (single isomer, unassigned) [Example 176, (4aR,8aS)-6-[4-[(R or S)-(3-methylsulfonylphenyl)-(3-pyridyl)methyl]piperidine-1-carbonyl]-4,4a,5,7,8,8a-hexahydropyrido[4,3-b][1,4]oxazin-3-one], it took 170 nM to reach half-maximal inhibition (IC50).

Take `Cc1cc(C2CCN(C(=O)N3CC[C@@H]4OCC(=O)N[C@@H]4C3)CC2)cnc1C(F)(F)F` [Example 101, (4aR,8aS)-6-(4-(5-Methyl-6-(trifluoromethyl)pyridin-3-yl)piperidine-1-carbonyl)hexahydro-2H-pyrido[4,3-b][1,4]oxazin-3(4H)-one]: 219 nM corresponded to half-maximal inhibition (IC50).

Turning to `CCNC(=O)c1cc(C)ccc1-c1ccc(C2CN(C(=O)N3CC[C@@H]4OCC(=O)N[C@@H]4C3)C2)cc1` [Example 260, 2-[4-[1-[(4aR,8aS)-3-Oxo-4,4a,5,7,8,8a-hexahydropyrido[4,3-b][1,4]oxazine-6-carbonyl]azetidin-3-yl]phenyl]-N-ethyl-5-methyl-benzamide], the IC50 stood at 3 nM.

`O=C1CO[C@H]2CCN(C(=O)N3CCC(c4cc(Cl)cc(OCC(F)(F)F)c4)C3)C[C@H]2N1` (stereo partly drawn) [Example 233, (4aR,8aS)-6-(3-(3-Chloro-5-(2,2,2-trifluoroethoxy)phenyl)pyrrolidine-1-carbonyl)hexahydro-2H-pyrido[4,3-b][1,4]oxazin-3(4H)-one] had an IC50 of 61 nM.

As for `O=C1CO[C@H]2CCN(C(=O)N3CCC(c4c[nH]c5ccc(F)cc45)C3)C[C@H]2N1` (stereo partly drawn) [Example 208, (4aR,8aS)-6-(3-(5-Fluoro-1H-indol-3-yl)pyrrolidine-1-carbonyl)hexahydro-2H-pyrido[4,3-b][1,4]oxazin-3(4H)-one], half-maximal inhibition (IC50) required 48 nM.

`O=C1CO[C@H]2CCN(C(=O)N3CC(c4ccc(N5CCCC5C(F)(F)F)cc4)C3)C[C@H]2N1` (stereo partly drawn) [Example 162, (4aR,8aS)-6-(3-(4-(2-(Trifluoromethyl)pyrrolidin-1-yl)phenyl)azetidine-1-carbonyl)hexahydro-2H-pyrido[4,3-b][1,4]oxazin-3(4H)-one] returned an IC50 of 0.3 nM.

`O=C1CO[C@H]2CCN(C(=O)N3CC(c4ccc(N5CCC(C(F)(F)F)C5)cc4)C3)C[C@H]2N1` (single isomer, unassigned) [Example 197, (4aR,8aS)-6-(3-(4-((R or S)-3-(Trifluoromethyl)pyrrolidin-1-yl)phenyl)azetidine-1-carbonyl)hexahydro-2H-pyrido[4,3-b][1,4]oxazin-3(4H)-one] gave an IC50 of 0.5 nM.

With `O=C1CO[C@H]2CCN(C(=O)N3CCC(C(c4ccc(F)cc4)c4nc(C5CC5)no4)CC3)C[C@H]2N1` (single isomer, unassigned) [Example 95, (4aR,8aS)-6-(4-((S or R)-(3-Cyclopropyl-1,2,4-oxadiazol-5-yl)(4-fluorophenyl)methyl)piperidine-1-carbonyl)hexahydro-2H-pyrido[4,3-b][1,4]oxazin-3(4H)-one], inhibition was half-maximal at 16 nM (IC50).
